{"source": "patent US20050118226A1", "about": "“Methods for treating ACAT-related diseases” (priority 2003, published 2005)", "key": {"[1]": {"system": "endogenous APP", "assay": "Western blot of endogenous APP processing in brains of non-transgenic littermates", "type": "in vivo, mouse", "protocol": "(§1) For Western blot analyses, frozen hemispheres of non-transgenic littermates were homogenized in TBS buffer containing 5 mM EDTA, 1 mM 1,10-phenanthroline (ICN Biomedicals), 20 μM ALLN (BioMol) and a protease inhibitor mixture (Roche). Homogenates were centrifuged at 100000 g for 1 hour at +4° C. The supernatants were used for analyses of secreted APP forms and ApoE, while the pellets extracted with the homogenization buffer containing 1% Triton X-100 and 0.2% SDS. 120 μg of total protein were resolved on 4-12% or 12% NuPAGE Bis-Tris gels (Invitrogen) under reducing conditions, and Western blots were performed as described previously (Puglielli et al., 2001). For analysis of Notch-ICD (NICD), 250 μg of total protein was immunoprecipitated with an NICD-specific antibody (cleavage site (Val1744)-specific; Cell Signaling Technology) according to manufacturer's recommendations. Antibodies used for Western blots were R1736 (specific for sAPP-α; a gift from Dr. D. J. Selkoe, Brigham and Women's Hospital, Boston, Mass.), Abl4 (PS 1-NTF; a gift from Dr. S. E. Gandy, Thomas Jefferson University, Philadelphia, Pa.), Pen2 (a gift from Dr. S. S. Sisodia, University of Chicago, Chicago, Ill.), N-Cadherin (C32, C-terminal; BD Transduction Laboratories), ApoE (Santa Cruz Biotechnology), β-tubulin (Sigma), BACE1 and Nicastrin (Affinity BioReagents). Rbt×APP (CTF), 22C11 (APP-NTF) and Rbt×PSI (PS 1-CTF) were from Chemicon International. BACE stainings (N-terminal; Affinity BioReagents) were confirmed with two additional antibodies; Ms×BACE1 (Chemicon International) and BACE (C-terminal; Affinity BioReagents). Densitometric analyses were performed using the QuantityOne software package (Bio-Rad). Statistical significance was determined by Student's t test. For Western blot analyses shown in supplemental figures, neutralized formic acid fractions (approximately 100 μg of total protein) were precipitated by adding 50% trichloroacetic acid to 15.5% final concentration. After 30 min incubation and centrifugation at 4° C., the pellets were solubilized by adding 10 μl of 2M Tris base and 10 μl of 4×LDS-PAGE loading buffer (NuPage, Invitrogen). Before loading, the samples were incubated for 30 min at 37° C., freeze-thawed once and boiled. Western blot analysis was performed as described above.\nOur previous cell-based studies have shown that ACAT inhibition reduces Aβ generation and alters APP processing by all three secretases (Puglielli et al., 2001). To determine whether CP-113,818 treatment modified brain APP processing in hAPP mice, we initially resolved formic acid-extracted brain proteins by SDS-PAGE to detect APP and its proteolytic derivatives. […]"}, "[2]": {"system": "γ-secretase complex components and substrates, BACE1, ApoE", "assay": "Western blot of γ-secretase components and substrates, BACE1 and ApoE in non-transgenic littermates", "type": "in vivo, mouse", "protocol": "as §1\nOur previous cell-based studies have shown that ACAT inhibition reduces Aβ generation and alters APP processing by all three secretases (Puglielli et al., 2001). To determine whether CP-113,818 treatment modified brain APP processing in hAPP mice, we initially resolved formic acid-extracted brain proteins by SDS-PAGE to detect APP and its proteolytic derivatives. […] However, levels of the secreted cleavage products of both α- and β-secretases (sAPP) were reduced by treatment with the ACAT inhibitor albeit not nearly as dramatically as Aβ (FIG. 9). Inhibition of sAPP production in the absence of a change in CTFs was somewhat surprising, and possibly an artifact caused by formic acid extraction. Because tissue from treated hAPP mice had been extracted with formic acid or fixed for histological studies, we looked at levels of APP-CTFs in total brain lysates from the non-transgenic littermates used in the Morris water maze tests. Using non-transgenic animals for these experiments also afforded an assessment of the effects of CP-113,818 on endogenous APP processing. CP-113,818 reduced liver cholesterol/cholesteryl-esters and serum cholesterol of non-transgenic littermates similarly to the transgenic animals shown in FIG. 1C (data not shown). Endogenous mouse APP-CTF levels in brain lysates from CP-113,818-treated animals decreased by 44% when compared to placebo-treated mice (n=8, p<0.005, values normalized to APP holoprotein levels; FIG. 10A, B). We could not resolve C99 and C83 from these samples due to smearing in the low molecular weight range because of high protein load (FIG. 10A). […]"}, "[3]": {"system": "adrenal cortical cells", "assay": "Adrenal gland histology (hematoxylin and eosin) for CP-113,818 toxicity in hAPP mice", "type": "in vivo", "conditions": "7.2 mg/kg per day, two months, 7.2 mg/kg/day", "protocol": "Animals were sacrificed the day after the last MWM training, on day 57 of treatment. Blood was obtained by cardiac puncture and total serum was used for cholesterol determination. Transcardiac perfusion with 4C PBS was performed, followed by dissection. Brains were removed, divided along the sagittal plane and then either frozen in liquid nitrogen or imersion fixed with 4% paraformaldehyde for histologic evaluation. Liver was frozen in liquid nitrogen, and adrenal glands were fixed in 4% paraformaldehyde followed by standard paraffin embedding and sectioning. Hematoxylin and eosin stained 6-8 um sections were analyzed for evidence of CP-113,818 toxicity.\nTo characterize the effect of CP-113,818 treatment on AD-like pathology, we used hAPP mice that express human APP751 containing the London (V717I) and Swedish (K670M/N671L) mutations under the regulatory control of the murine Thy-1 promoter (mThy1-hAPP751) (Rockenstein et al., 2001). These animals develop detectable plaques in the neocortex and hippocampus at the ages of 4 and 6 months, respectively, and show memory deficits starting at 6 months of age. […] Therefore, we included similar numbers of male and female animals in both placebo and CP-113,818 groups to detect possible gender-specific effects of the inhibitor in our mouse model. […]"}}, "note": "“Also recorded” adds a separate entry of the source.", "data": [{"smiles": "CCCCCCCC[C@H](SCCCCCC)C(=O)Nc1c(SC)cc(C)nc1SC", "note": "[CP-113,818]", "values": [{"measurement": "decrease in the ratio between total sAPP and sAPPα", "setting": "[1]", "value": 36, "unit": "%"}, {"measurement": "decrease of endogenous mouse APP-CTF levels", "setting": "[1]; brain lysates, normalized to APP holoprotein, vs placebo", "value": 44, "unit": "%"}, {"measurement": "reduction of total sAPP", "setting": "[1]; soluble TBS fraction", "value": 19.1, "unit": "%"}, {"measurement": "decrease of sAPPα", "setting": "[1]; soluble TBS fraction, trend, n.s.", "value": 3.4, "unit": "%"}, {"measurement": "Notch intracellular domain (NICD) levels", "setting": "[2]; immunoprecipitated from non-transgenic mouse brain lysates", "value": "statistically unchanged; also recorded: remained unchanged"}, {"measurement": "BACE protein levels", "setting": "[2]; non-transgenic brain lysates", "value": "unchanged; also recorded: did not alter expression levels"}, {"measurement": "levels of N-cadherin-CTF1", "setting": "[2]; non-transgenic brain lysates", "value": "unaffected; also recorded: remained unchanged"}, {"measurement": "levels of PS1 N- and C-terminal fragments, nicastrin, and pen-2", "setting": "[2]; non-transgenic brain lysates", "value": "did not detect significant changes"}, {"measurement": "nicastrin maturation / maturation of γ-secretase complex", "setting": "[2]; non-transgenic brain lysates", "value": "unaffected; also recorded: did not alter maturation"}, {"measurement": "expression of ApoE", "setting": "[2]; non-transgenic littermates, soluble TBS fraction", "value": "unchanged; also recorded: did not alter expression levels"}, {"measurement": "adrenal toxicity (vacuolization in cytoplasm of adrenal cortical cells)", "setting": "[3]", "value": "no histologic evidence of toxicity; also recorded: did not show signs of vacuolization"}]}]}
